Patent publication US20120283216A1, “FUNGICIDAL 2-(BICYCLIC ARYLOXY)CARBOXAMIDES” (priority 2009, published 2012)

How the values were obtained:
Type in all cases: in vivo
[1] = system: Blumeria graminis f. sp. tritici; test: Test A: wheat powdery mildew, preventive spray on wheat seedlings, visual disease rating; details: preventive spray at 40 ppm, rated 8 days after inoculation; for pest or weed control at 40 ppm: Blumeria graminis, 192 h, read-out: Test A disease control rating (100 = 100% disease control, 0 = no disease control relative to the controls)
Text: General protocol for preparing test suspensions for Tests A-C: the test compounds were first dissolved in acetone in an amount equal to 11% of the final volume and then suspended at the desired concentration (in ppm) in acetone and purified water (50/50 mix by volume) containing 250 ppm of the surfactant Trem® 014 (polyhydric alcohol esters). The resulting test suspensions were then used in Tests A-C. Spraying a 40 ppm test suspension to the point of run-off on the test plants was the equivalent of a rate of 800 g/ha. The test suspension was sprayed to the point of run-off on wheat seedlings. The following day the seedlings were inoculated with a spore dust of Blumeria graminis f. sp. tritici, (the causal agent of wheat powdery mildew) and incubated in a growth chamber at 20° C. for 8 days, after which time disease ratings were visually made. Results for Tests A-C are given in Table A. In the Table, a rating of 100 indicates 100% disease control and a rating of 0 indicates no disease control (relative to the controls). A dash (-) indicates no test results. All results are from applications of 40 ppm.

Septoria tritici = test: Test B: wheat leaf blotch, preventive spray on wheat seedlings, visual disease rating; details: preventive spray at 40 ppm, rated after 48 h + 19 days; for pest or weed control at 40 ppm: Zymoseptoria tritici, 504 h, read-out: Test B disease control rating (100 = 100% disease control, 0 = no disease control relative to the controls)
Text: General protocol for preparing test suspensions for Tests A-C: the test compounds were first dissolved in acetone in an amount equal to 11% of the final volume and then suspended at the desired concentration (in ppm) in acetone and purified water (50/50 mix by volume) containing 250 ppm of the surfactant Trem® 014 (polyhydric alcohol esters). The resulting test suspensions were then used in Tests A-C. Spraying a 40 ppm test suspension to the point of run-off on the test plants was the equivalent of a rate of 800 g/ha. The test suspension was sprayed to the point of run-off on wheat seedlings. The following day the seedlings were inoculated with a spore suspension of Septoria tritici (the causal agent of wheat leaf blotch) and incubated in a saturated atmosphere at 20° C. for 48 h, and then moved to a growth chamber at 20° C. for 19 days, after which time disease ratings were visually made. Results for Tests A-C are given in Table A. In the Table, a rating of 100 indicates 100% disease control and a rating of 0 indicates no disease control (relative to the controls). A dash (-) indicates no test results. All results are from applications of 40 ppm.

Botrytis cinerea = test: Test C: tomato botrytis, preventive spray on tomato seedlings, visual disease rating; details: preventive spray at 40 ppm, rated after 48 h + 3 days; for pest or weed control at 40 ppm: Botrytis cinerea, 120 h, read-out: Test C disease control rating (100 = 100% disease control, 0 = no disease control relative to the controls)
Text: General protocol for preparing test suspensions for Tests A-C: the test compounds were first dissolved in acetone in an amount equal to 11% of the final volume and then suspended at the desired concentration (in ppm) in acetone and purified water (50/50 mix by volume) containing 250 ppm of the surfactant Trem® 014 (polyhydric alcohol esters). The resulting test suspensions were then used in Tests A-C. Spraying a 40 ppm test suspension to the point of run-off on the test plants was the equivalent of a rate of 800 g/ha.
The test suspension was sprayed to the point of run-off on tomato seedlings. The following day the seedlings were inoculated with a spore suspension of Botrytis cinerea (the causal agent of tomato botrytis) and incubated in saturated atmosphere at 20° C. for 48 h, and then moved to a growth chamber at 27° C. for 3 additional days, after which time disease ratings were visually made.
Results for Tests A-C are given in Table A. In the Table, a rating of 100 indicates 100% disease control and a rating of 0 indicates no disease control (relative to the controls). A dash (-) indicates no test results. All results are from applications of 40 ppm.

Row | SMILES | Test A disease control rating (100 = 100% disease control, 0 = no disease control relative to the controls) [1] [%] | Test B disease control rating (100 = 100% disease control, 0 = no disease control relative to the controls) (Septoria tritici) [%] | Test C disease control rating (100 = 100% disease control, 0 = no disease control relative to the controls) (Botrytis cinerea) [%] | pest or weed control at 40 ppm [1] [%] | pest or weed control at 40 ppm (Septoria tritici) [%] | pest or weed control at 40 ppm (Botrytis cinerea) [%]
1 | COC(Oc1ccc2ccc(Br)cc2c1)C(=O)NC(C)(C)C#N (stereo not drawn) [Compound 93] | 95 | 100 | 100 | – | – | –
2 | CCC(Oc1cc2cc(F)ccc2cn1)C(=O)NC(C)(C)C (stereo not drawn) [Compound 66] | 79 | 0 | 88 | – | – | –
3 | COCC(C)(C)NC(=O)C(OC)Oc1cnc2ccc(C#C[Si](C)(C)C)cc2c1 (stereo not drawn) [Compound 160] | 69 | 99 | 97 | – | – | –
4 | C#CC(C)(C)NC(=O)C(OC)Oc1ccc2ccc(OC)cc2c1 (stereo not drawn) [Compound 82] | 96 | 99 | 100 | – | – | –
5 | CCC(Oc1cnc2ccc(Br)cc2c1)C(=O)NC(C)(C)COC (stereo not drawn) [Compound 48] | 96 | 99 | 99 | – | – | –
6 | CCC(Oc1cnc2ccc(I)cc2c1)C(=O)NC(C)(C)COC (single isomer, unassigned) [Compound 61] | 98 | 100 | 99 | – | – | –
7 | COCC(C)(C)NC(=O)C(OC)Oc1ccc2ccc(OC)cc2c1 (stereo not drawn) [Compound 83] | 96 | 99 | 100 | – | – | –
8 | COCC(Oc1cnc2ccc(Br)cc2c1)C(=O)NC(C)(C)C (stereo not drawn) [Compound 34] | 0 | 92 | 94 | – | – | –
9 | CCC(Oc1ccc2ccc(Br)cc2c1)C(=O)NN(C)C (stereo not drawn) [Compound 9] | – | – | – | 69 | 99 | 99
10 | CCC(Oc1ccc2ccc(Br)cc2c1)C(=O)NC(C)(C)CC (stereo not drawn) [Compound 102] | 0 | 96 | 61 | – | – | –
11 | COCC(C)(C)NC(=O)C(C)Oc1cnc2ccc(I)cc2c1 (stereo not drawn) [Compound 59, 2-[(6-iodo-3-quinolinyl)oxy]-N-(2-methoxy-1,1-dimethylethyl)propanamide] | – | – | – | 0 | 95 | 99
12 | CCC(Oc1ccc2ccc(OCOC)cc2c1)C(=O)NC(C)(C)C#N (stereo not drawn) [Compound 72] | 0 | 99 | 100 | – | – | –
13 | COC(Oc1ccc2ccc(C(F)F)cc2c1)C(=O)NC(C)(C)C#N (stereo not drawn) [Compound 79] | 72 | 98 | 99 | – | – | –
14 | C#CCOc1ccc2ccc(OC(OC)C(=O)NC(C)(C)COC)cc2c1 (stereo not drawn) [Compound 130] | 21 | 98 | 100 | – | – | –
15 | CCC(Oc1ccc2ccc(Br)cc2c1)C(=O)NC(C)(C)CO (stereo not drawn) [Compound 16, 2-[(7-bromo-2-naphthalenyl)oxy]-N-(2-hydroxy-1,1-dimethylethyl)-butanamide] | – | – | – | 97 | 99 | 100
16 | CCC(Oc1cnc2ccc(Cl)cc2c1)C(=O)NC(C)(C)CO (stereo not drawn) [Compound 42] | 0 | 0 | 0 | – | – | –
17 | C#CC(C)(C)NC(=O)C(OC)Oc1ccc2ccc(Br)cc2c1 (stereo not drawn) [Compound 94] | 99 | 100 | 100 | – | – | –
18 | CCC(Oc1ccc2ccc(Br)cc2c1)C(=O)NC(C)(C)C(F)(F)F (stereo not drawn) [Compound 27] | 99 | 86 | 98 | – | – | –
19 | CCC(Oc1ccc2ccc(Br)cc2c1)C(=O)NC(C)(C)CF (stereo not drawn) [Compound 26, 2-[(7-bromo-2-naphthalenyl)oxy]-N-(2-fluoro-1,1-dimethylethyl)butanamide] | – | – | – | 100 | 100 | 99
20 | CC#Cc1ccc2ncc(OC(OC)C(=O)NC(C)(C)COC)cc2c1 (stereo not drawn) [Compound 158] | 98 | 38 | 99 | – | – | –
21 | C#CC(C)(C)NC(=O)C(OCC)Oc1ccc2ccc(OC)cc2c1 (stereo not drawn) [Compound 115] | 79 | 99 | 97 | – | – | –
22 | CCC(Oc1ccc2ccc(Br)cc2c1)C(=O)NC(C)(C)CN=CN(C)C (stereo not drawn) [Compound 15, 2-[(7-bromo-2-naphthalenyl)oxy]-N-[2-[[(dimethylamino)methylene]amino]-1,1-dimethylethyl]butanamide] | – | – | – | 43 | 100 | 100
23 | C#Cc1ccc2ncc(OC(CC)C(=O)NC(C)(C)C#C)cc2c1 (stereo not drawn) [Compound 151] | 99 | 100 | 96 | – | – | –
24 | C#Cc1ccc2ccc(OC(CC)C(=O)NC(C)(C)C#N)cc2c1 (stereo not drawn) [Compound 110, N-(1-cyano-1-methylethyl)-2-[(7-ethynyl-2-naphthalenyl)oxy]butanamide] | – | – | – | 100 | 100 | 100
25 | CCC(Oc1cc2cc(Br)ccc2cn1)C(=O)NC(C)(C)C (stereo not drawn) [Compound 67] | 92 | 77 | 100 | – | – | –
